Assays:
[1] = target: T1, human leukocyte elastase (ELH) (Homo sapiens, UniProt P08246); experiment: in vitro anti-elastasic activity, Me-OSAAPV-p-NA substrate, spectrophotometry; type: biochemical; conditions: even in a small amount (0.01% to 0.2%)
T1 sequence (P08246 30-267): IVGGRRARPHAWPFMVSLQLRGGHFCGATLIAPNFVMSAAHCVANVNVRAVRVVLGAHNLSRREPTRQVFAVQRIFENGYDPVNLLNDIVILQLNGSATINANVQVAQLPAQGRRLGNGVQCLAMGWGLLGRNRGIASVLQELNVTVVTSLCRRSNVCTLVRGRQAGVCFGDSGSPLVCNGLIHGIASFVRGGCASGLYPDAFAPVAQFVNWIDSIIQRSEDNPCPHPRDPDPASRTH
Experimental: The anti-elastasic activity of compounds according to the invention is determined in vitro compared to the human leukocyte elastase (ELH).
The test is performed in the following way:
A Me-OSAAPV-p-NA (méthyl-O-succinate alanine alanine proline valine-p-nitroaniline) substrate, onto which ELH (40 milli-units per ml) and 0.1% of the compound to be tested are applied, is left for incubating at 37° C. for 60 minutes.
Thereafter, the % inhibition of the control elastase activity is determined by spectrophotometry.

[2] = target: T1, human leukocyte elastase (ELH); experiment: ex vivo activity on fresh human skin cuts treated with ELH for 2 hours (Example 4); type: cell-based; conditions: 20° C.
Experimental: (§1) The ex vivo activity of example 2 compound has been evaluated on surviving human skins treated by a human leukocyte elastase (ELH).
The test is performed the following way.
Fresh human skin cuts from two different donors are treated for 2 hours, at 20° C., by 20 μl of a buffer solution (pH 7.4) optionally comprising 10 μg/ml ELH and optionally 0.1% of the compound to be tested, optionally previously put in solution in ethanol.
(§2) The elastic fibres are coloured in blue using catechin (+) and quantified morphometrically using a computer assisted image analysis. The average derma surface percentage occupied by elastic fibres is evaluated this way.

[3] = target: T1, human leukocyte elastase (ELH); experiment: ex vivo activity on surviving human skin fragments treated with ELH, 10 days culture (Example 5); type: cell-based; conditions: 0.5 μg ELH per ml; 5 μl of 0.2% compound in ethanol every two days; 10 days at 37° C.; control 7.4%, ELH alone 5.1%
Experimental: as §1
The test is performed the following way:
Fragments of normal human skin from three different donors are deposited in inserts positioned in culture wells. Culture medium added with antibiotics is added in the bottom of the wells. A pass is performed through slow diffusion between the two compartments via a porous membrane (pore size: 12 μm).
The culture medium is renewed every three days.
On the skin fragments, optionally 0.5 μg ELH per ml culture medium are added.
5 μl of the compound to be tested are also added every two days, previously put in solution at 0.2% by weight in ethanol.
The skins are kept surviving for 10 days at 37° C.
as §2

## CC(=O)N(c1cccc(C(F)(F)F)c1)C(C(=O)NCC(=O)O)C(C)C (stereo not shown) [Compound A, {2-[acetyl-(3-trifluoromethyl-phenyl)-amino]-3-méthyl-butyryl-amino}acetic acid]
[1]
  inhibition of the elastase activity (in words): strong inhibition
[2]; Skin 1, 10 μg/ml ELH + 0.1% compound, control 12.7%, ELH alone 4.85%
  % Surface occupied by elastic fibres: 13.95%
[2]; Skin 2, 10 μg/ml ELH + 0.1% compound, control 15.25%, ELH alone 6.85%
  % Surface occupied by elastic fibres: 11.85%
[3]
  % Surface occupied by elastic fibres: 7.1%
